# ChEMBL document CHEMBL3822374, “Anti-inflammatory polyphenol constituents derived from Cissus pteroclada Hayata” (Bioorg Med Chem Lett, 2016)
# Experiments:
# [1] = Inhibition of NFkappaB signaling pathway in LPS-stimulated mouse RAW264.7 cells by ELISA; format: cell-based
# [2] = tested on: RAW264.7; experiment: Cytotoxicity against mouse RAW264.7 cells assessed as reduction in cell viability at 50 umol/L after 24 hrs by MTT assay; format: cell-based; details: raw264.7, 24 h, 50 µM
# [3] = tested on: RAW264.7; experiment: Antiinflammatory activity against LPS-stimulated mouse RAW264.7 cells assessed as downregulation of PGE2 levels by ELISA; format: functional, cell-based
# [4] = tested on: RAW264.7; experiment: Antiinflammatory activity against LPS-stimulated mouse RAW264.7 cells assessed as downregulation of COX2 levels by ELISA; format: functional, cell-based
# [5] = tested on: RAW264.7; experiment: Antiinflammatory activity against LPS-stimulated mouse RAW264.7 cells assessed as downregulation of NO levels by ELISA; format: functional, cell-based
# [6] = tested on: RAW264.7; experiment: Cytotoxicity against LPS-stimulated mouse RAW264.7 cells assessed as reduction in cell viability at 50 umol/L after 24 hrs by MTT assay; format: cell-based; details: raw264.7, 24 h, 50 µM
# [7] = tested on: RAW264.7; experiment: Antiinflammatory activity against LPS-stimulated mouse RAW264.7 cells assessed as downregulation of iNOS levels by ELISA; format: functional, cell-based
# [8] = tested on: RAW264.7; experiment: Antiinflammatory activity against LPS-stimulated mouse RAW264.7 cells assessed as PGE2 levels at 25 umol/L by ELISA (reference value: 33.2 +/- 2.33 pg/mL); format: functional
# [9] = Inhibition of NFkappaB signaling pathway in LPS-stimulated mouse RAW264.7 cells assessed as protein levels at 25 umol/L by ELISA (reference value: 1.23 +/- 0.06 pg/mL); format: cell-based
# [10] = tested on: RAW264.7; experiment: Antiinflammatory activity against LPS-stimulated mouse RAW264.7 cells assessed as TNFalpha levels at 5 umol/L by ELISA (reference value: 183.21 +/- 5.36 pg/mL); format: functional
# [11] = tested on: RAW264.7; experiment: Antiinflammatory activity against LPS-stimulated mouse RAW264.7 cells assessed as TNFalpha levels at 25 umol/L by ELISA (reference value: 183.21 +/- 5.36 pg/mL); format: functional
# [12] = tested on: RAW264.7; experiment: Antiinflammatory activity against LPS-stimulated mouse RAW264.7 cells assessed as COX2 levels at 50 umol/L by ELISA (reference value: 159.64 +/- 13.56 pg/mL); format: functional
# [13] = tested on: RAW264.7; experiment: Antiinflammatory activity against LPS-stimulated mouse RAW264.7 cells assessed as NO levels at 50 umol/L by ELISA (reference value: 0.95 +/- 0.052 umol/mL); format: functional
# [14] = tested on: RAW264.7; experiment: Antiinflammatory activity against LPS-stimulated mouse RAW264.7 cells assessed as PGE2 levels at 50 umol/L by ELISA (reference value: 33.2 +/- 2.33 pg/mL); format: functional
# [15] = tested on: RAW264.7; experiment: Antiinflammatory activity against LPS-stimulated mouse RAW264.7 cells assessed as iNOS levels at 25 umol/L by ELISA (reference value: 31.63 +/- 3.26 U/mL); format: functional
# [16] = tested on: RAW264.7; experiment: Antiinflammatory activity against LPS-stimulated mouse RAW264.7 cells assessed as PGE2 levels at 5 umol/L by ELISA (reference value: 33.2 +/- 2.33 pg/mL); format: functional
# [17] = tested on: RAW264.7; experiment: Antiinflammatory activity against LPS-stimulated mouse RAW264.7 cells assessed as COX2 levels at 5 umol/L by ELISA (reference value: 159.64 +/- 13.56 pg/mL); format: functional
# [18] = tested on: RAW264.7; experiment: Antiinflammatory activity against LPS-stimulated mouse RAW264.7 cells assessed as COX2 levels at 25 umol/L by ELISA (reference value: 159.64 +/- 13.56 pg/mL); format: functional
# [19] = tested on: RAW264.7; experiment: Antiinflammatory activity against LPS-stimulated mouse RAW264.7 cells assessed as IL1beta levels at 5 umol/L by ELISA (reference value: 8.70 +/- 0.365 pg/mL); format: functional
# [20] = tested on: RAW264.7; experiment: Antiinflammatory activity against LPS-stimulated mouse RAW264.7 cells assessed as iNOS levels at 50 umol/L by ELISA (reference value: 31.63 +/- 3.26 U/mL); format: functional
# [21] = Inhibition of NFkappaB signaling pathway in LPS-stimulated mouse RAW264.7 cells assessed as protein levels at 50umol/L by ELISA (reference value: 1.23 +/- 0.06 pg/mL); format: cell-based
# [22] = Inhibition of NFkappaB signaling pathway in LPS-stimulated mouse RAW264.7 cells assessed as protein levels at 5 umol/L by ELISA (reference value: 1.23 +/- 0.06 pg/mL); format: cell-based
# [23] = tested on: RAW264.7; experiment: Antiinflammatory activity against LPS-stimulated mouse RAW264.7 cells assessed as IL1beta levels at 25 umol/L by ELISA (reference value: 8.70 +/- 0.365 pg/mL); format: functional
# [24] = tested on: RAW264.7; experiment: Antiinflammatory activity against LPS-stimulated mouse RAW264.7 cells assessed as NO levels at 25 umol/L by ELISA (reference value: 0.95 +/- 0.052 umol/mL); format: functional
# [25] = tested on: RAW264.7; experiment: Antiinflammatory activity against LPS-stimulated mouse RAW264.7 cells assessed as NO levels at 5 umol/L by ELISA (reference value: 0.95 +/- 0.052 umol/mL); format: functional
# [26] = tested on: RAW264.7; experiment: Antiinflammatory activity against LPS-stimulated mouse RAW264.7 cells assessed as iNOS levels at 5 umol/L by ELISA (reference value: 31.63 +/- 3.26 U/mL); format: functional
# [27] = tested on: RAW264.7; experiment: Antiinflammatory activity against LPS-stimulated mouse RAW264.7 cells assessed as IL1beta levels at 50 umol/L by ELISA (reference value: 8.70 +/- 0.365 pg/mL); format: functional
# [28] = tested on: RAW264.7; experiment: Antiinflammatory activity against LPS-stimulated mouse RAW264.7 cells assessed as TNFalpha levels at 50 umol/L by ELISA (reference value: 183.21 +/- 5.36 pg/mL); format: functional
SMILES,inhibition [1],Activity [2],Activity [3],Activity [4],Activity [5],Activity [6],Activity [7],Activity [8] [pg/mL],Activity [9] [pg/mL],Activity [10] [pg/mL],Activity [11] [pg/mL],Activity [12] [pg/mL],Activity [13] [µmol/mL],Activity [14] [pg/mL],Activity [15] [U/ml],Activity [16] [pg/mL],Activity [17] [pg/mL],Activity [18] [pg/mL],Activity [19] [pg/mL],Activity [20] [U/ml],also measured
O=C1O[C@@H]2[C@@H](O)[C@H](O)[C@@H](CO)O[C@H]2c2c1cc(O)c(O)c2O,Dose-dependent effect,Non-toxic,Dose-dependent effect,Dose-dependent effect,Dose-dependent effect,Non-toxic,Dose-dependent effect,–,–,–,–,–,–,–,–,–,–,–,–,–,–
O=c1c(O)cccc2cc(O)c(O)c(O)c12 [PURPUROGALLIN],–,Non-toxic,–,–,–,Non-toxic,–,28.11,0.086,52.85,44.36,67.23,0.21,27.57,22.15,28.76,120.78,67.73,6.7,21.64,Activity [21]: 0.053 pg/mL; Activity [22]: 0.32 pg/mL; Activity [23]: 2.95 pg/mL; Activity [24]: 0.42 µmol/mL; Activity [25]: 0.59 µmol/mL; Activity [26]: 31.37 U/ml; Activity [27]: 2.88 pg/mL; Activity [28]: 42.44 pg/mL
O=C(O)c1cc(O)c(O)c(O)c1 [GALLIC ACID],–,Non-toxic,–,–,–,Non-toxic,–,32.74,0.14,103.08,80.77,122.67,0.031,30.26,29.76,33.06,183.21,149.16,4.33,20.57,Activity [21]: 0.07 pg/mL; Activity [22]: 0.76 pg/mL; Activity [23]: 4.17 pg/mL; Activity [24]: 0.39 µmol/mL; Activity [25]: 0.88 µmol/mL; Activity [26]: 35.29 U/ml; Activity [27]: 4.13 pg/mL; Activity [28]: 62.59 pg/mL
COc1c(O)cc2c(c1O)[C@@H]1O[C@H](COC(=O)c3cc(O)c(O)c(O)c3)[C@@H](O)[C@H](O)[C@H]1OC2=O,Dose-dependent effect,Non-toxic,Dose-dependent effect,Dose-dependent effect,Dose-dependent effect,Non-toxic,Dose-dependent effect,–,–,–,–,–,–,–,–,–,–,–,–,–,–
